Consider one compound from ChEMBL document CHEMBL4184122, “Chebulinic acid attenuates glutamate-induced HT22 cell death by inhibiting oxidative stress, calcium influx and MAPKs phosphorylation” (2018).

For the assay, the system named is HT-22. Description: Neuroprotective activity against glutamate induced cell death in mouse HT22 cells assessed as increase in cell viability at 1 to 5 uM after 24 hrs by MTT assay. It is filed as functional, cell-based.

Activity calls are given as the source filed them. The calls are words filed in the database; no cut-off is given here.

For the compound `CC(=O)N[C@@H](CS)C(=O)O`, the outcome was Active.
